Source: patent US5698564A, “Diphenyl disulfide compounds” (Nisshin Flour Milling Co., Ltd., priority 1994, dated 1997)

Tests used:
[1] = tested on: production of IL-1β (THP-1 cells); test: inhibition of the production of IL-1β in THP-1 cells stimulated with PMA and polyinosic acid (enzyme immunoassay); assay type: cell-based; conditions: Homo sapiens, PMA 2 μg/ml and polyinosic acid, 24 hours, read-out: IC50 (concentration to inhibit 50% the IL-1β production)
Procedure: Compounds 1-3, the present diphenyl disulfide compounds obtained in Examples 1 and 2, were evaluated for the activity to inhibit the production of IL-1β, in accordance with the following method.
(§1) The THP-1 cells derived from human peripheral blood (ATCC TIB202) were suspended in RPMI 1640 medium (available from Bio-Whittaker Co., Ltd.) containing 10% (v/v) of fetal bovine serum, 2 mM of glutamine, 50 μM of 2-mercaptoethanol, 60 μg/ml of penicillin and 100 μg/ml of streptomycin.
The suspension of the THP-1 cell was subcultured at 37° C. under the atmosphere of […] and 5% carbon dioxide. A portion of the subcultured suspension was centrifuged at 1200 rpm at room temperature for 3 minutes to recover the subcultured THP-1 cells.
(§2) The resulting THP-1 cells were resuspended in RPMI 1640 medium containing 2% (v/v) of fetal bovine serum, 2 mM of glutamine, 50 μM of 2-mercaptoethanol, 60 μg/ml of penicillin and 100 μg/ml of streptomycin so as to provide a final THP-1 cell concentration of 3×10^6 cells/ml.
The resuspension of the cell was dispensed in 0.5 ml portions to wells of a 24-well plate for cell culture. Then, each solution of the present Compounds 1-3 dissolved in DMSO at the respective specified concentrations was added in 2.5 μl portions to each well. The plate was incubated at 37° C. under the atmosphere of 95% […] and 5% carbon dioxide for one hour. Then, 12-o-tetradecanoylphorbol-13-acetate (PMA) and polyinosic acid were added to each well so as to provide final concentrations of 2 μg/ml and […] respectively. The plate was incubated at 37° C. under the atmosphere of 95% […] and 5% carbon dioxide for 24 hours. After incubation, a supernatant was recovered from each well by means of Pipetteman available from Gilson Co., Ltd. Then, an amount of the IL-1β in the supernatant was assayed by means of the enzyme immunoassay kit available from Cayman Chemical Co., Ltd. […]

[2] = tested on: release of TNFα (THP-1 cells); test: inhibition of the release of TNFα in THP-1 cells stimulated with PMA and polyinosic acid (ELISA); assay type: cell-based; conditions: Homo sapiens, PMA 2 μg/ml and polyinosic acid 200 μg/ml, 24 hours, read-out: IC50 (concentration to inhibit 50% the TNFα release)
Procedure: Compound 1, the present diphenyl disulfide compound obtained in Example 1, was evaluated for the activity to inhibit the release of TNFα, in accordance with the following method.
as §1
The suspension of THP-1 cell was subcultured at 37° C. under the atmosphere of 95% […] and 5% carbon dioxide. A portion of the subcultured suspension was centrifuged at 1200 rpm at room temperature for 3 minutes to recover the subcultured THP-1 cells.
as §2
The resuspension of the cell was dispensed in 0.5 ml portions to wells of a 24-well plate for cell culture, and incubated at 37° C. for one hour. Each solution of the present Compound 1 dissolved in DMSO at the respective specified concentrations was added in 2.5 μl portions to each well. The plate was incubated at 37° C. under the atmosphere of 95% […] and 5% carbon dioxide for one hour. […]

| IC50 [1] [µM] | IC50 [2] [µM] | SMILES |
| --- | --- | --- |
| 3.8 | 19 | Nc1ccccc1SSc1ccccc1Nc1ncccn1 [Compound 1] |
| 34 | – | c1cnc(Nc2ccccc2SSc2ccccc2Nc2ncccn2)nc1 [Compound 2] |

| SMILES | IC50 [1] [µM] | IC50 [2] [µM] |
| --- | --- | --- |
| O=[N+]([O-])c1ccc(SSc2ccccc2-c2nc3ccccc3[nH]2)c([N+](=O)[O-])c1 [Compound 3] | 34 | – |
